The test system of one series is ESECT-7 cells. In words: Annexin V staining, ESECT-7. The class given is cell-based, human. The following applies: 10 μM DIM-C-pPhOH-3-Cl-5-OCH3, 25 μM DIM-C-pPhOH, FIG. 3A. Here is the method: Annexin V staining: ESECT-7 and ESECT-40 cells were seeded in Nunc chambered cover glass followed by various drug treatments. The cells were then washed with ice-cold PBS, and 5 μL Alexa Fluor® 488 Annexin V with 100 μg/mL PI (as per the manufacturer's instructions) were added to the cells and incubated for 15 min, and the cells were observed using a Zeiss confocal fluorescence microscope.

A further series has as its target T1, NR4A1 (Mus musculus, UniProt P12813).
T1 construct: endogenous in cells; host or cells: C2C12 muscle cells
The following applies: C2C12 muscle cells; cited from earlier work.

The next series relates to NEM cells. Kind of series: Cell growth, normal endometrial NEM cells. Particulars: 24 hr; 15-25 μM DIM-C-pPhOH, 5-10 μM DIM-C-pPhOH-3-Cl-5-OCH3; vs DMSO control; FIG. 4A. The class given is cell-based, human. Here is the method: Primary human endometriotic stromal cells from endometriosis patients: Ovarian endometrioma were isolated from endometriosis patients in the proliferative phase following the IRB-approved protocol. Isolated ectopic lesions were digested with collagenase type 3 (300 μg/ml) and DNaseI (40 μg/ml) for 90 min at 37° C., and then tissues were filtered through 150, 100, and 40 μm sieves to isolate endometrial stromal cells. The collected endometrial stromal cells were cultured in DMEM/F12 with 10% FBS plus 1× antibiotic/antimycotic solution and then validated by flow cytometry with a CD90 antibody (a mesenchymal marker). Henceforth, we refer to the stromal cells as ectopic endometrium isolated ovarian endometrioma (ESECT). As the control, primary normal endometrial stromal cells isolated from the biopsy of the eutopic endometrium of normal women (NEM) in the proliferative phase. All cells were incubated at 37° C. in CO2 incubator in an atmosphere of humidified 5% CO2 and 95% air.
Cell proliferation assay: Patient-derived endometriotic cells ESECT-7 and ESECT-40 were seeded into a 96-well plate, and the cells were then treated for 24 hr with either DMSO or different concentrations of DIM-C-pPhOH and DIM-C-pPhOH-3-Cl-5-OCH3. […] Dimethyl sulfoxide (DMSO) was added and incubated at […] for 10 min, and absorbance was measured at 570 nm.

T1 sequence (P12813 whole entry): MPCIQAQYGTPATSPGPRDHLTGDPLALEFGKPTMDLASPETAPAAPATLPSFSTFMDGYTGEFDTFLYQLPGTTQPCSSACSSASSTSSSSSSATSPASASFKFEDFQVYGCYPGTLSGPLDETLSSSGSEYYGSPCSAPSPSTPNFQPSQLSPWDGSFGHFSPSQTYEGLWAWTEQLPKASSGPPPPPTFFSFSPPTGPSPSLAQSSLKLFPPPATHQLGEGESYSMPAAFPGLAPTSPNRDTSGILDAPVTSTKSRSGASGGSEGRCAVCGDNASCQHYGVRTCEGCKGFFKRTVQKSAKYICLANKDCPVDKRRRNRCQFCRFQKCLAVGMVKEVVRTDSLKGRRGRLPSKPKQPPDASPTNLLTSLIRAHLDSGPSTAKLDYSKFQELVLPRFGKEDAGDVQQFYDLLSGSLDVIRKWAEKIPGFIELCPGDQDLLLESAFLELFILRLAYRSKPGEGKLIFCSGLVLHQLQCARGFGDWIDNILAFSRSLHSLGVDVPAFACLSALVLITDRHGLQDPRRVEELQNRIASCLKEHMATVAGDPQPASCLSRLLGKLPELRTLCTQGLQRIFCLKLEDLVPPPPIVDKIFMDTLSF
Excerpt for mouse ectopic lesions: Endometriosis Mouse Model with Auto-transplantation: One uterine horn was isolated from a female mouse (6 weeks old, C57BL/6J) under anesthesia, and then the uterine horn was longitudinally cut. Using a 2-mm dermal biopsy punch, one endometrial fragment was obtained from the isolated uterus and subsequently sutured to the mesenteric membrane attached to the intestine of the same mouse. The abdominal incision then was closed by suture. Before harvesting ectopic lesions, the mouse estrous cycle was determined using vaginal cytology. At the estrus stage in the 3rd week after endometriosis induction, ectopic lesions were isolated from mice with endometriosis. As the endometriosis control, uteri were isolated from C57BL/6J female mice without endometriosis at the estrus stage at 10 weeks of age.
Endometriosis Treatment with C-DIM: Endometriosis was induced to mice with auto- and hetero-transplantation method as described above. […] In the case of the auto-transplantation model, we isolated mouse ectopic lesions treated with C-DIM versus the vehicle from mice with endometriosis at the estrus stage in the 3rd week after drug treatment and then determined their volume. In the case of the hetero-transplantation model, we determined the luciferase activity of the human ectopic lesions treated with C-DIM versus vehicle in SCID mice with endometriosis during the drug treatment.

Turning to `COc1cc(C(c2c[nH]c3ccccc23)c2c[nH]c3ccccc23)cc(Cl)c1O` [DIM-C-pPhOH-3-Cl-5-OCH3], in the series with ESECT-7 cells, the “Annexin V staining (apoptosis)” value is “significantly induced”. The “NR4A1 agonist activity, induction of genes involved in glucose uptake” value on NR4A1 was “worked as NR4A1 agonists”. Besides, the “growth of normal endometrial NEM cells” value in the series with NEM cells is “did not suppress the growth”. Further, in the series with mouse ectopic lesions (25 mg/kg every day, intraperitoneal, three weeks, p=0.015, FIG. 8D), the “reduction of the volume of ectopic lesions compared to the vehicle” value is on record as 2.4 fold. The “bodyweight of mice as compared to the vehicle” value in the series with mouse ectopic lesions (mouse, in vivo) is listed as “did not change”.

The values are drawn from US12622892B2, “Methods for treating endometriosis” (THE TEXAS A&M UNIVERSITY SYSTEM, priority 2020, dated 2026).
